Measurements: the supplement of paper PMC10307832

What was measured:
Assay in all cases: relative viability (nuclei count vs DMSO), 5 days (fraction); higher = more cells survive
XMD13-2 + Vorinostat = compound: C1CC1C(=O)NC2=NNC3=C2C=CC(=C3)C4=CC(=CC=C4)C(=O)NC5CC5 [XMD13-2] + O=C(CCCCCCC(=O)Nc1ccccc1)NO [Vorinostat] (partner 1 µM)
Procedure, shortened: (§1)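 Values are medians from duplicate plates. Each reflects relative viability, defined as the nuclei count of treated wells over that of vehicle wells. Lung cancer cell lines in 1536-well plates were pin-tool dosed one day after seeding with one drug alone or with a fixed anchor-drug dose plus five library-drug doses (not always all listed) in √10 steps, then fixed, stained and imaged at 4× after 5 days.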

ALW-II-49-7 + Dasatinib = compound: Cc1ccc(C(=O)Nc2cccc(C(F)(F)F)c2)cc1Nc1cncc(C(N)=O)c1 [ALW-II-49-7] + Cc1nc(Nc2ncc(C(=O)Nc3c(C)cccc3Cl)s2)cc(N2CCN(CCO)CC2)n1 [Dasatinib] (partner 0.075 µM)
Procedure, shortened: as §1

Dasatinib + Pictilisib = compound: Cc1nc(Nc2ncc(C(=O)Nc3c(C)cccc3Cl)s2)cc(N2CCN(CCO)CC2)n1 [Dasatinib] + CS(=O)(=O)N1CCN(Cc2cc3nc(-c4cccc5[nH]ncc45)nc(N4CCOCC4)c3s2)CC1 [Pictilisib] (partner 1 µM)
Procedure, shortened: as §1

XMD13-2 + AZD7762 = compound: C1CC1C(=O)NC2=NNC3=C2C=CC(=C3)C4=CC(=CC=C4)C(=O)NC5CC5 [XMD13-2] + NC(=O)Nc1cc(-c2cccc(F)c2)sc1C(=O)N[C@H]1CCCNC1 [AZD7762] (partner 0.2 µM)
Procedure, shortened: as §1

SW 1573
relative viability (XMD13-2 + Vorinostat; first compound 0.05 µM): 0.786
relative viability (XMD13-2 + Vorinostat; first compound 0.1581 µM): 0.625
relative viability (XMD13-2 + Vorinostat; first compound 0.5 µM): 0.853
relative viability (XMD13-2 + Vorinostat; first compound 1.581 µM): 0.844
relative viability (XMD13-2 + Vorinostat; first compound 5 µM): 0.385
relative viability (ALW-II-49-7 + Dasatinib; first compound 0.08 µM): 0.473
relative viability (ALW-II-49-7 + Dasatinib; first compound 0.253 µM): 0.399
relative viability (ALW-II-49-7 + Dasatinib; first compound 0.8 µM): 0.568
relative viability (ALW-II-49-7 + Dasatinib; first compound 2.53 µM): 0.514
relative viability (ALW-II-49-7 + Dasatinib; first compound 8 µM): 0.304
relative viability (Dasatinib + Pictilisib; first compound 0.005 µM): 0.431
relative viability (Dasatinib + Pictilisib; first compound 0.01581 µM): 0.426
relative viability (Dasatinib + Pictilisib; first compound 0.05 µM): 0.379
relative viability (Dasatinib + Pictilisib; first compound 0.1581 µM): 0.265
relative viability (Dasatinib + Pictilisib; first compound 0.5 µM): 0.203

NCI-H1993
relative viability (XMD13-2 + AZD7762; first compound 0.05 µM): 0.926
relative viability (XMD13-2 + AZD7762; first compound 0.1581 µM): 0.595
relative viability (XMD13-2 + AZD7762; first compound 0.5 µM): 0.387
relative viability (XMD13-2 + AZD7762; first compound 1.581 µM): 0.63
relative viability (XMD13-2 + AZD7762; first compound 5 µM): 0.791
relative viability (XMD13-2 + Vorinostat; first compound 0.05 µM): 1.2
relative viability (XMD13-2 + Vorinostat; first compound 0.1581 µM): 0.814
relative viability (XMD13-2 + Vorinostat; first compound 0.5 µM): 0.769
relative viability (XMD13-2 + Vorinostat; first compound 1.581 µM): 0.613
relative viability (XMD13-2 + Vorinostat; first compound 5 µM): 0.907
relative viability (ALW-II-49-7 + Dasatinib; first compound 0.08 µM): 0.492
relative viability (ALW-II-49-7 + Dasatinib; first compound 0.253 µM): 0.533
relative viability (ALW-II-49-7 + Dasatinib; first compound 0.8 µM): 0.423
relative viability (ALW-II-49-7 + Dasatinib; first compound 2.53 µM): 0.545
relative viability (ALW-II-49-7 + Dasatinib; first compound 8 µM): 0.666
relative viability (Dasatinib + Pictilisib; first compound 0.005 µM): 0.923
relative viability (Dasatinib + Pictilisib; first compound 0.01581 µM): 0.682
relative viability (Dasatinib + Pictilisib; first compound 0.05 µM): 0.723
relative viability (Dasatinib + Pictilisib; first compound 0.1581 µM): 0.776
relative viability (Dasatinib + Pictilisib; first compound 0.5 µM): 0.866

NCI-H661
relative viability (XMD13-2 + Vorinostat; first compound 0.05 µM): 0.811
relative viability (XMD13-2 + Vorinostat; first compound 0.1581 µM): 0.75
relative viability (XMD13-2 + Vorinostat; first compound 0.5 µM): 0.75
relative viability (XMD13-2 + Vorinostat; first compound 1.581 µM): 0.825
relative viability (XMD13-2 + Vorinostat; first compound 5 µM): 0.563
relative viability (ALW-II-49-7 + Dasatinib; first compound 0.08 µM): 0.782
relative viability (ALW-II-49-7 + Dasatinib; first compound 0.253 µM): 1.06
relative viability (ALW-II-49-7 + Dasatinib; first compound 0.8 µM): 0.965
relative viability (ALW-II-49-7 + Dasatinib; first compound 2.53 µM): 0.832
relative viability (ALW-II-49-7 + Dasatinib; first compound 8 µM): 0.767
relative viability (Dasatinib + Pictilisib; first compound 0.005 µM): 0.269
relative viability (Dasatinib + Pictilisib; first compound 0.01581 µM): 0.272
relative viability (Dasatinib + Pictilisib; first compound 0.05 µM): 0.225
relative viability (Dasatinib + Pictilisib; first compound 0.1581 µM): 0.274
relative viability (Dasatinib + Pictilisib; first compound 0.5 µM): 0.269

NCI-H520
relative viability (XMD13-2 + Vorinostat; first compound 0.05 µM): 0.799
relative viability (XMD13-2 + Vorinostat; first compound 0.1581 µM): 0.743
relative viability (XMD13-2 + Vorinostat; first compound 0.5 µM): 0.698
relative viability (XMD13-2 + Vorinostat; first compound 1.581 µM): 0.869
relative viability (XMD13-2 + Vorinostat; first compound 5 µM): 0.414
relative viability (ALW-II-49-7 + Dasatinib; first compound 0.08 µM): 0.218
relative viability (ALW-II-49-7 + Dasatinib; first compound 0.253 µM): 0.192
relative viability (ALW-II-49-7 + Dasatinib; first compound 0.8 µM): 0.202
relative viability (ALW-II-49-7 + Dasatinib; first compound 2.53 µM): 0.172
relative viability (ALW-II-49-7 + Dasatinib; first compound 8 µM): 0.177
relative viability (Dasatinib + Pictilisib; first compound 0.005 µM): 0.278
relative viability (Dasatinib + Pictilisib; first compound 0.01581 µM): 0.265
relative viability (Dasatinib + Pictilisib; first compound 0.05 µM): 0.213
relative viability (Dasatinib + Pictilisib; first compound 0.1581 µM): 0.148
relative viability (Dasatinib + Pictilisib; first compound 0.5 µM): 0.157

ChaGo-K-1
relative viability (XMD13-2 + AZD7762; first compound 0.05 µM): 0.956
relative viability (XMD13-2 + AZD7762; first compound 0.1581 µM): 0.97
relative viability (XMD13-2 + AZD7762; first compound 0.5 µM): 0.892
relative viability (XMD13-2 + AZD7762; first compound 1.581 µM): 0.924
relative viability (XMD13-2 + AZD7762; first compound 5 µM): 0.881
relative viability (XMD13-2 + Vorinostat; first compound 0.05 µM): 0.789
relative viability (XMD13-2 + Vorinostat; first compound 0.1581 µM): 0.635
relative viability (XMD13-2 + Vorinostat; first compound 0.5 µM): 0.837
relative viability (XMD13-2 + Vorinostat; first compound 1.581 µM): 0.7
relative viability (XMD13-2 + Vorinostat; first compound 5 µM): 0.716
relative viability (ALW-II-49-7 + Dasatinib; first compound 0.08 µM): 0.538
relative viability (ALW-II-49-7 + Dasatinib; first compound 0.253 µM): 0.668
relative viability (ALW-II-49-7 + Dasatinib; first compound 0.8 µM): 0.554
relative viability (ALW-II-49-7 + Dasatinib; first compound 2.53 µM): 0.539
relative viability (ALW-II-49-7 + Dasatinib; first compound 8 µM): 0.501
relative viability (Dasatinib + Pictilisib; first compound 0.005 µM): 0.435
relative viability (Dasatinib + Pictilisib; first compound 0.01581 µM): 0.761
relative viability (Dasatinib + Pictilisib; first compound 0.05 µM): 0.774
relative viability (Dasatinib + Pictilisib; first compound 0.1581 µM): 0.649
relative viability (Dasatinib + Pictilisib; first compound 0.5 µM): 0.626

NCI-H2085
relative viability (XMD13-2 + AZD7762; first compound 0.05 µM): 0.993
relative viability (XMD13-2 + AZD7762; first compound 0.1581 µM): 0.995
relative viability (XMD13-2 + AZD7762; first compound 0.5 µM): 1.04
relative viability (XMD13-2 + AZD7762; first compound 1.581 µM): 0.848
relative viability (XMD13-2 + AZD7762; first compound 5 µM): 1.09
relative viability (XMD13-2 + Vorinostat; first compound 0.05 µM): 0.897
relative viability (XMD13-2 + Vorinostat; first compound 0.1581 µM): 0.745
relative viability (XMD13-2 + Vorinostat; first compound 0.5 µM): 0.842
relative viability (XMD13-2 + Vorinostat; first compound 1.581 µM): 0.711
relative viability (XMD13-2 + Vorinostat; first compound 5 µM): 0.81
relative viability (ALW-II-49-7 + Dasatinib; first compound 0.08 µM): 0.236
relative viability (ALW-II-49-7 + Dasatinib; first compound 0.253 µM): 0.168
relative viability (ALW-II-49-7 + Dasatinib; first compound 0.8 µM): 0.239
relative viability (ALW-II-49-7 + Dasatinib; first compound 2.53 µM): 0.215
relative viability (ALW-II-49-7 + Dasatinib; first compound 8 µM): 0.213
relative viability (Dasatinib + Pictilisib; first compound 0.005 µM): 0.399
relative viability (Dasatinib + Pictilisib; first compound 0.01581 µM): 0.31
relative viability (Dasatinib + Pictilisib; first compound 0.05 µM): 0.242
relative viability (Dasatinib + Pictilisib; first compound 0.1581 µM): 0.218
relative viability (Dasatinib + Pictilisib; first compound 0.5 µM): 0.167

NCI-H1651
relative viability (XMD13-2 + AZD7762; first compound 0.05 µM): 0.515
relative viability (XMD13-2 + AZD7762; first compound 0.1581 µM): 0.577
relative viability (XMD13-2 + AZD7762; first compound 0.5 µM): 0.486
relative viability (XMD13-2 + AZD7762; first compound 1.581 µM): 0.462
relative viability (XMD13-2 + AZD7762; first compound 5 µM): 0.511
relative viability (XMD13-2 + Vorinostat; first compound 0.05 µM): 0.586
relative viability (XMD13-2 + Vorinostat; first compound 0.1581 µM): 0.561
relative viability (XMD13-2 + Vorinostat; first compound 0.5 µM): 0.565
relative viability (XMD13-2 + Vorinostat; first compound 1.581 µM): 0.593
relative viability (XMD13-2 + Vorinostat; first compound 5 µM): 0.613
relative viability (ALW-II-49-7 + Dasatinib; first compound 0.08 µM): 0.317
relative viability (ALW-II-49-7 + Dasatinib; first compound 0.253 µM): 0.393
relative viability (ALW-II-49-7 + Dasatinib; first compound 0.8 µM): 0.432
relative viability (ALW-II-49-7 + Dasatinib; first compound 2.53 µM): 0.507
relative viability (ALW-II-49-7 + Dasatinib; first compound 8 µM): 0.517
relative viability (Dasatinib + Pictilisib; first compound 0.005 µM): 0.716
relative viability (Dasatinib + Pictilisib; first compound 0.01581 µM): 0.499
relative viability (Dasatinib + Pictilisib; first compound 0.05 µM): 0.46
relative viability (Dasatinib + Pictilisib; first compound 0.1581 µM): 0.423
relative viability (Dasatinib + Pictilisib; first compound 0.5 µM): 0.419

SK-MES-1
relative viability (XMD13-2 + Vorinostat; first compound 0.05 µM): 1.16
relative viability (XMD13-2 + Vorinostat; first compound 0.1581 µM): 1.09
relative viability (XMD13-2 + Vorinostat; first compound 0.5 µM): 1.07
relative viability (XMD13-2 + Vorinostat; first compound 1.581 µM): 1.03
relative viability (XMD13-2 + Vorinostat; first compound 5 µM): 1.31
relative viability (ALW-II-49-7 + Dasatinib; first compound 0.08 µM): 0.353
relative viability (ALW-II-49-7 + Dasatinib; first compound 0.253 µM): 0.351
relative viability (ALW-II-49-7 + Dasatinib; first compound 0.8 µM): 0.296
relative viability (ALW-II-49-7 + Dasatinib; first compound 2.53 µM): 0.33
relative viability (ALW-II-49-7 + Dasatinib; first compound 8 µM): 0.222
relative viability (Dasatinib + Pictilisib; first compound 0.005 µM): 0.329
relative viability (Dasatinib + Pictilisib; first compound 0.01581 µM): 0.287
relative viability (Dasatinib + Pictilisib; first compound 0.05 µM): 0.242
relative viability (Dasatinib + Pictilisib; first compound 0.1581 µM): 0.165
relative viability (Dasatinib + Pictilisib; first compound 0.5 µM): 0.16

COR-L 105
relative viability (XMD13-2 + Vorinostat; first compound 0.05 µM): 0.781
relative viability (XMD13-2 + Vorinostat; first compound 0.1581 µM): 0.929
relative viability (XMD13-2 + Vorinostat; first compound 0.5 µM): 1.01
relative viability (XMD13-2 + Vorinostat; first compound 1.581 µM): 0.79
relative viability (XMD13-2 + Vorinostat; first compound 5 µM): 0.847
relative viability (ALW-II-49-7 + Dasatinib; first compound 0.08 µM): 0.304
relative viability (ALW-II-49-7 + Dasatinib; first compound 0.253 µM): 0.308
relative viability (ALW-II-49-7 + Dasatinib; first compound 0.8 µM): 0.326
relative viability (ALW-II-49-7 + Dasatinib; first compound 2.53 µM): 0.272
relative viability (ALW-II-49-7 + Dasatinib; first compound 8 µM): 0.329
relative viability (Dasatinib + Pictilisib; first compound 0.005 µM): 0.359
relative viability (Dasatinib + Pictilisib; first compound 0.01581 µM): 0.383
relative viability (Dasatinib + Pictilisib; first compound 0.05 µM): 0.316
relative viability (Dasatinib + Pictilisib; first compound 0.1581 µM): 0.308
relative viability (Dasatinib + Pictilisib; first compound 0.5 µM): 0.245
